Data published in PMC9403717, “Ruthenium complexes show potent inhibition of AKR1C1, AKR1C2, and AKR1C3 enzymes and anti-proliferative action against chemoresistant ovarian cancer cell line” (Frontiers in Pharmacology, 2022).

Legend:
OVCAR-4 cells = test: Cell proliferation assay (alamarBlue), OVCAR-4; assay type: cell-based, human; details: for IC50: OVCAR-4, 48 h incubation
Protocol: The cell line COV362 (CVCL_2,420) was originally established from a high-grade ovarian serous adenocarcinoma from a metastatic site in the pleural effusion ([van den Berg-Bakker et al., 1993]) and was purchased from ECACC (ECACC 07071910) as p37 on 13 October 2017. The growth medium for COV362 cells was DMEM (D5546; Sigma–Aldrich GmbH), with 10% FBS (F9665; Sigma–Aldrich GmbH) and 2 mM L-glutamine (G7513; Sigma–Aldrich GmbH). COV362 cells in passages p37 + 12 to p37 + 17 were used in this study and seeded at a concentration of 3.5 cells/ml × 10^4 cells/ml for proliferation studies and at a concentration of 5.3 × 10^5/ml for migration studies. The cell line OVCAR-4 (CVCL_1,627) is a high-grade serous ovarian adenocarcinoma cell line established from a patient refractory to cisplatin ([Johnson et al., 1997]). The cell line was purchased from Merck on 19 March 2021. The growth medium for OVCAR-4 cells was RPMI-1640 (Sigma R5586) supplemented with 2 mM glutamine (G7513; Sigma–Aldrich GmbH), 10% FBS (F9665; Sigma–Aldrich GmbH), 0.25 μg/ml insulin (I9278; Sigma–Aldrich GmbH). OVCAR-4 cells in passages p+6 to p+15 were used in this study and seeded at a concentration of 6 cells/ml × 10^4 cells/ml. The control cell line HIO80 (CVCL_E274) was obtained from Andrew K. Godwin (University of Kansas Medical Center, Kansas, United States) on 20 October 2017 as p+72. It was originally established from ovarian surface epithelium ([Yang et al., 2004]). HIO80 cells were grown in RPMI medium (R5886, Sigma–Aldrich GmbH) supplemented with 10% FBS (F9665; Sigma–Aldrich GmbH), 2 mm L-glutamine (G7513; Sigma–Aldrich GmbH) and 6.6 µg/ml insulin (I9278; Sigma–Aldrich GmbH). HIO80 cells in passages p72 + 8 to p72 + 19 were used in this study and seeded at a concentration of 2 × 10^4 cells/mL. HIO80 in passage +10 was authenticated by short tandem repeats (STR) profiling performed by ATCC on 22 February 2019. Cells were grown in a humidified atmosphere containing 5% CO2 at 37°C. All cell lines were negative for mycoplasma infection which was periodically tested using MycoAlert^TM mycoplasma detection kit (Lonza, Basel, Switzerland).
The effect of ruthenium compounds on the proliferation of ovarian cancer cell lines COV362 and OVCAR-4 and the control cell line HIO80 was analyzed using the cell proliferation reagent alamarBlue HS (A50101; Thermo Fisher Scientific) following the manufacturer’s instructions.
Cells were seeded in 96-well plates in 100 µL of medium and allowed to adhere and grow for 24 h. […] Cisplatin and carboplatin purchased from Sigma–Aldrich GmbH (cat. number: PHR1624, lot: LRAB7778) and (cat. number: C2538, lot: MKCK1243) were dissolved in sterile water. Working solutions were prepared by a serial dilution of stock solutions with a culture medium. After the initial incubation, cells were treated with ruthenium complexes, cisplatin, and carboplatin. A range of final concentrations between 0.001 and 300 µM were used for ruthenium complexes and cisplatin, and between 0.001 µM and 1 mM for carboplatin. After 48 h of incubation, plates were incubated with 20 µL of alamarBlue. After 4 h absorbance was measured with a BioTek microplate spectrophotometer at 570 nm, with the reference wavelength set at 600 nm. First, the background value of a well containing the active substance without cells was subtracted, then the average values for duplicates/triplicates were calculated. The absorbance of the well containing only untreated cells was used as a normalization control. The half-maximal […] concentration (IC50) was determined for all ruthenium complexes with a growth-inhibiting effect on cells by constructing a dose-response curve (Graph Pad Prism, Version 8.0).

COV362 cells = test: Cell migration assay (Ibidi culture inserts), COV362; assay type: cell-based, human; details: 100 μM; for effect on cell migration (in words): 24 and 48 h
Protocol: Cell migration assay was performed using Ibidi® three-well culture inserts. The inserts were placed in six-well plates. In total, 70 µL of cell suspension was seeded in the inserts and allowed to adhere and grow for 24 h. When the cells formed a confluent monolayer, the inserts were carefully removed and the cells were washed two times with DPBS. Cells were treated with 100 μM (final concentration) of compounds 8, 9, cisplatin, and carboplatin in 2 ml of growth medium. Cells treated with a medium containing the same volume of sterile water or DMSO were used as the controls. Images of cell gaps were taken with Axio Scope A1 Polarized Light Microscope (Zeiss) at the time of treatment, 24 and 48 h after, and analyzed using ImageJ software.

SMILES: Cc1ccc(C(C)C)cc1.[Cl-].[O-]c1c(I)cc(Cl)c2cccnc12.[Ru+2] [Compound 7]
- fold higher IC50 value on OVCAR-4 compared to COV362 (OVCAR-4 cells): 1.6 fold
- IC50 (OVCAR-4 cells): 28.1 µM

SMILES: C1N2CN3CN1CP(C2)C3.Cc1ccc(C(C)C)cc1.F[P-](F)(F)(F)(F)F.[O-]c1c(I)cc(Cl)c2cccnc12.[Ru+2] [Compound 8]
- fold higher IC50 value on OVCAR-4 compared to COV362 (OVCAR-4 cells): 2.6 fold
- IC50 (OVCAR-4 cells): 97.5 µM
- effect on cell migration (in words) (COV362 cells): inhibited cell migration similarly to cisplatin

SMILES: Cc1ccc(C(C)C)cc1.O=[N+]([O-])c1ccc([O][Ru][Cl])c2ncccc12 [Compound 9, (η ^6-p-Cymene) (nitroxolinato)chloridoruthenium (II)]
- fold lower IC50 value on OVCAR-4 compared to COV362 (OVCAR-4 cells): 1.5 fold
- IC50 (OVCAR-4 cells): 14.4 µM
- effect on cell migration (in words) (COV362 cells): prevented migration
- cytotoxic effect in migration assay (in words) (COV362 cells; after 48 h incubation): cytotoxic effect
